# Test results reported in patent publication US10829490B2, “Substituted dihydropyrazino[1 ′,2′:1,5]pyrrolo[2,3-d]pyrimidine-based antiproliferative agents” (G1 Therapeutics, Inc., priority 2016, dated 2020).
# Assays:
# Assay type in all cases: biochemical
# CDK9/CycT = CDK9/CycT (Homo sapiens (Human), UniProt P50750); assay: CDK9/CycT kinase inhibition (Biological Table 2)
# CDK6/CycD3 = CDK6/CycD3 (Homo sapiens (Human), UniProt Q00534); assay: CDK6/CycD3 kinase inhibition (Biological Table 1)
# CDK7/CycH/MAT1 = CDK7/CycH/MAT1 (Homo sapiens (Human), UniProt P50613); assay: CDK7/CycH/MAT1 kinase inhibition (Biological Table 2)
# CDK2/CycE = CDK2/CycE (Homo sapiens (Human), UniProt P24941); assay: CDK2/CycE kinase inhibition (Biological Table 1)
# CDK5/p25 = CDK5/p25 (Homo sapiens (Human), UniProt Q00535); assay: CDK5/p25 kinase inhibition (Biological Table 2)
# CDK4/CycD = CDK4/CycD (Homo sapiens (Human), UniProt P11802); assay: CDK4/CycD kinase inhibition (Biological Table 1)
# CDK5/p35 = CDK5/p35 (Homo sapiens (Human), UniProt Q00535); assay: CDK5/p35 kinase inhibition (Biological Table 1)
# CDK2/CycA = CDK2/CycA (Homo sapiens (Human), UniProt P24941); assay: CDK2/CycA kinase inhibition (Biological Table 1)
# CDK6/Cyclin D3 = CDK6/Cyclin D3 (Homo sapiens (Human), UniProt Q00534); assay: CDK6/Cyclin D3 kinase assay (Biological Table 3)
# Description: [Worded in the source for another target; this target is reported under the same test.] (§1) Selected compounds disclosed herein were tested in CDK4/cyclinD1, CDK2/CycA and CDK2/cyclinE kinase assays by Nanosyn (Santa Clara, Calif.) to determine their inhibitory effect on these CDKs. The assays were performed using microfluidic kinase detection technology (Caliper Assay Platform). The compounds were tested in 12-point dose-response format in singlicate at Km for ATP. Phosphoacceptor substrate peptide concentration used was 1 μM for all assays and Staurosporine was used as the reference compound for all assays.
# CDK2/CyclinE = CDK2/CyclinE (Homo sapiens (Human), UniProt P24941); assay: CDK2/cyclinE kinase assay, microfluidic kinase detection (Caliper, Nanosyn); details: 12-point dose-response, ATP at Km (100 μM), enzyme 0.28 nM, incubation 1 hr; read-out: CDK2/Cyclin E
# Description: as §1, with “assays. Specifics of each assay are as described below:” for “assays.”
# CDK2/CyclinE: Enzyme concentration: 0.28 nM; ATP concentration: 100 μM; Incubation time: 1 hr.
# CDK2/CyclinA = CDK2/CyclinA (Homo sapiens (Human), UniProt P24941); assay: CDK2/CycA kinase assay, microfluidic kinase detection (Caliper, Nanosyn); details: 12-point dose-response, ATP at Km (50 μM), enzyme 0.2 nM, incubation 3 hr; read-out: CDK2/Cyclin A
# Description: as §1, with “assays. Specifics of each assay are as described below:” for “assays.”
# CDK2/CyclinA: Enzyme concentration: 0.2 nM; ATP concentration: 50 μM; Incubation time: 3 hr.
# CDK4/CyclinD1 = CDK4/CyclinD1 (Homo sapiens (Human), UniProt P11802); assay: CDK4/cyclinD1 kinase assay, microfluidic kinase detection (Caliper, Nanosyn); details: 12-point dose-response, ATP at Km (200 μM), enzyme 1 nM, incubation 10 hr; read-out: CDK4/Cyclin D1
# Description: as §1, with “assays. Specifics of each assay are as described below:” for “assays.”
# CDK4/CyclinD1: Enzyme concentration: 1 nM; ATP concentration: 200 μM; Incubation time: 10 hr.
# CDK9/Cyclin T = CDK9/Cyclin T (Homo sapiens (Human), UniProt P50750); assay: CDK9/Cyclin T kinase assay (Biological Table 3)
# CDK9/Cyclin T, sequence (P50750 whole entry): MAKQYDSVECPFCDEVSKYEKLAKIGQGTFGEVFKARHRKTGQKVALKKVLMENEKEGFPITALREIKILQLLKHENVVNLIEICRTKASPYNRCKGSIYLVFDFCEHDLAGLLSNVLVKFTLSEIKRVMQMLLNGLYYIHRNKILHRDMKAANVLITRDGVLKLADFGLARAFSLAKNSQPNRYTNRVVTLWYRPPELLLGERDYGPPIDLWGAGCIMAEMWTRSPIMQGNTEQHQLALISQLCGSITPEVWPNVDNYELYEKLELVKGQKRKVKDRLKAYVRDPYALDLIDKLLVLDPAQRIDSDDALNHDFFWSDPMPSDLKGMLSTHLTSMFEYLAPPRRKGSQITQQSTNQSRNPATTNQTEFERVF
# CDK9/Cyclin T, sequence (O60563 whole entry partner): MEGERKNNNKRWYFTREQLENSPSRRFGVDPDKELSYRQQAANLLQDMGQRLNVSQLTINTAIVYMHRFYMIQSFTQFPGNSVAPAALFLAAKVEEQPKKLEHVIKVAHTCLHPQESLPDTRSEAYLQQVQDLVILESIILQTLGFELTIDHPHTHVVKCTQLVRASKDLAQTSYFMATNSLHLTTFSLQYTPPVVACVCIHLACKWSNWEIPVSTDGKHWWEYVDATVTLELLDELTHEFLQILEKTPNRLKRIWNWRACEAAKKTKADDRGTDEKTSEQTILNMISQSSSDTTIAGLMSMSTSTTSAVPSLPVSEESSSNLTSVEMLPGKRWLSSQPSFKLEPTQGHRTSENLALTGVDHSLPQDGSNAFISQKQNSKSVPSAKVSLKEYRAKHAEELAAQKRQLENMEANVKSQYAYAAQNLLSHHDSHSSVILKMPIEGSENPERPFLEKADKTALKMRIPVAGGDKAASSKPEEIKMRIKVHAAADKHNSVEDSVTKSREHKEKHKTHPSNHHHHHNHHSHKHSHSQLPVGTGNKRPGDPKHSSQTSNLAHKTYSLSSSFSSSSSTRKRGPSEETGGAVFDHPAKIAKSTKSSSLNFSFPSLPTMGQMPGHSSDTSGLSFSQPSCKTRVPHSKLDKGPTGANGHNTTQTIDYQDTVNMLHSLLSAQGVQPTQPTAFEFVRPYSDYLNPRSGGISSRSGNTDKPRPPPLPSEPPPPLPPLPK
# CDK4/CycD, sequence (P11802 whole entry): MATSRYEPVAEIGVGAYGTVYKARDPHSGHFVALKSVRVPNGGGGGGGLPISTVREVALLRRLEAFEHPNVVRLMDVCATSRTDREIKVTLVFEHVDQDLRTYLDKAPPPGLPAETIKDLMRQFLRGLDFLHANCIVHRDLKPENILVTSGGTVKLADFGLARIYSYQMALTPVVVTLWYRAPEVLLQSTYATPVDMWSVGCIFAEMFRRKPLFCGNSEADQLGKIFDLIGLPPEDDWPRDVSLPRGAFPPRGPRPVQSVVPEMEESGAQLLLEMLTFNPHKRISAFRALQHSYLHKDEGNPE
# CDK4/CycD, sequence (P24385 whole entry partner): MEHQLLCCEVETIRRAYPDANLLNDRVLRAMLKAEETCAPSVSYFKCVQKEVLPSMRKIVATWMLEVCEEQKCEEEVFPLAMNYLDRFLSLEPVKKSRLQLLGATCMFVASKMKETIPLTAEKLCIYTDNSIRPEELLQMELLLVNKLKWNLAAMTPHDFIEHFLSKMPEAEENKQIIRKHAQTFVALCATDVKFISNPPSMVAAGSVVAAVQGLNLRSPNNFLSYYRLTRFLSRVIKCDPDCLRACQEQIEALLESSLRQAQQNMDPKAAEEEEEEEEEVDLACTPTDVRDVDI
# CDK4/CyclinD1, sequence (P11802 whole entry): as the sequence (P11802 whole entry) above
# CDK4/CyclinD1, sequence (P24385 whole entry partner): as the sequence (P24385 whole entry partner) above
# CDK7/CycH/MAT1, sequence (P50613 whole entry): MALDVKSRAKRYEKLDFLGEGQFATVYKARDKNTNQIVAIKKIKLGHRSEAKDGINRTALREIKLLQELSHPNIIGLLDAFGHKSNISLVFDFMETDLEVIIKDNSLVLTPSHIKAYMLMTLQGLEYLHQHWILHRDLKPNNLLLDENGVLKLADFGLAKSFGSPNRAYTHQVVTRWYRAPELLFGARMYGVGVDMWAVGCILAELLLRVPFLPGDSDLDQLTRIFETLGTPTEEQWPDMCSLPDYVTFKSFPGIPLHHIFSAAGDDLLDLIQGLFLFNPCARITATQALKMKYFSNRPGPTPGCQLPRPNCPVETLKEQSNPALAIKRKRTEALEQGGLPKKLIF
# CDK7/CycH/MAT1, sequence (P51946 whole entry partner): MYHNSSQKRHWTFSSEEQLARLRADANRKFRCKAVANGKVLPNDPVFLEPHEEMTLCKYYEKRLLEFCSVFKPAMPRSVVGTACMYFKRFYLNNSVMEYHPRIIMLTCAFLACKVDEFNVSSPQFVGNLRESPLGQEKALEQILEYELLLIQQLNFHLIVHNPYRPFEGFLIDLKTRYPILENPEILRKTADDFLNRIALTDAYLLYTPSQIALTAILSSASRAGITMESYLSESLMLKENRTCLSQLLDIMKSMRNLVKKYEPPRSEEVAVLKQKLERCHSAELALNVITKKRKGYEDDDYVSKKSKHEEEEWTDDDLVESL
# CDK7/CycH/MAT1, sequence (P51948 whole entry partner): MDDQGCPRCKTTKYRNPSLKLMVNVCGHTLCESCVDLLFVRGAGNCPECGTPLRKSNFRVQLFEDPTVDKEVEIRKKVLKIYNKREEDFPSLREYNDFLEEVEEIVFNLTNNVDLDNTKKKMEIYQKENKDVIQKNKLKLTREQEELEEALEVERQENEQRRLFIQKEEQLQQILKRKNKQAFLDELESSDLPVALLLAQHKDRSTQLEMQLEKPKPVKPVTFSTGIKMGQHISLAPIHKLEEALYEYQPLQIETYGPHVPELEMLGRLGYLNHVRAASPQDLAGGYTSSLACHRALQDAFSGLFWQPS
# CDK9/CycT, sequence (P50750 whole entry): as the sequence (P50750 whole entry) above
# CDK9/CycT, sequence (O60563 whole entry partner): as the sequence (O60563 whole entry partner) above
# CDK6/CycD3, sequence (Q00534 whole entry): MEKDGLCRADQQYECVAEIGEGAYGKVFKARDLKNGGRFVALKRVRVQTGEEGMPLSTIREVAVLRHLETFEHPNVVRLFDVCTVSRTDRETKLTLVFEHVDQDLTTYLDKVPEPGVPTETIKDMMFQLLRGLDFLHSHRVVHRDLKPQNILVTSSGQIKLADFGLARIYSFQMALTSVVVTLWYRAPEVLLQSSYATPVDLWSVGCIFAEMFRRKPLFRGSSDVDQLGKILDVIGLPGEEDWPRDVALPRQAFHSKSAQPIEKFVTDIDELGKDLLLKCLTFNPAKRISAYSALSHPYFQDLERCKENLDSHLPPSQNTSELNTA
# CDK6/CycD3, sequence (P30281 whole entry partner): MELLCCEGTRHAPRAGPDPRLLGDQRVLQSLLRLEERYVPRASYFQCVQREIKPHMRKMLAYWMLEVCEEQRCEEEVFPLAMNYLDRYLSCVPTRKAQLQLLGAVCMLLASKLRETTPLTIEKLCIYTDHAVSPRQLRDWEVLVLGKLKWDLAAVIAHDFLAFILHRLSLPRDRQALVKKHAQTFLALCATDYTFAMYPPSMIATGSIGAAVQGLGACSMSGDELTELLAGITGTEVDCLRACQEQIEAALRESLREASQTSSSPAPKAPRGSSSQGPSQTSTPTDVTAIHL
# CDK6/Cyclin D3, sequence (Q00534 whole entry): as the sequence (Q00534 whole entry) above
# CDK6/Cyclin D3, sequence (P30281 whole entry partner): as the sequence (P30281 whole entry partner) above
# CDK5/p35, sequence (Q00535 whole entry): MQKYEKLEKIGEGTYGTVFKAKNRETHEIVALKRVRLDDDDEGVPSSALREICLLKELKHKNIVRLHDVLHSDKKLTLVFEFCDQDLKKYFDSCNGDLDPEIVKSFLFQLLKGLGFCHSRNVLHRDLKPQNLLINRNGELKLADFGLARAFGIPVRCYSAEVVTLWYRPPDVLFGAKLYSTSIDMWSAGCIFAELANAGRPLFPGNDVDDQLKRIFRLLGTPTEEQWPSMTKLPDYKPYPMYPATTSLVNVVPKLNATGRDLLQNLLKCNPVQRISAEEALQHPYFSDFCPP
# CDK5/p35, sequence (Q15078 whole entry partner): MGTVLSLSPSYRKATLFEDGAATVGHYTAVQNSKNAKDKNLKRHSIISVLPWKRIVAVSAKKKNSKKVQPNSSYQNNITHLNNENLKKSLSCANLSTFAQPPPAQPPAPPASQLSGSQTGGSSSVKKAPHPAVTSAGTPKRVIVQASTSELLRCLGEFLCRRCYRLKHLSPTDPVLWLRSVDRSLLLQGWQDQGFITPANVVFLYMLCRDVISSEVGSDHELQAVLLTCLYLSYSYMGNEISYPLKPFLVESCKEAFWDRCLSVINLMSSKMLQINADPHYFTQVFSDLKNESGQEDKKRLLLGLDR
# CDK5/p25, sequence (Q00535 whole entry): as the sequence (Q00535 whole entry) above
SMILES,IC50 (CDK9/CycT),IC50 (CDK6/CycD3),IC50 (CDK7/CycH/MAT1),IC50 (CDK2/CycE),IC50 (CDK5/p25),IC50 (CDK4/CycD),IC50 (CDK5/p35),IC50 (CDK2/CycA),IC50 (CDK6/Cyclin D3),IC50 (CDK2/CyclinE),IC50 (CDK2/CyclinA),IC50 (CDK4/CyclinD1),IC50 (CDK9/Cyclin T)
"CN1CCN(c2ccc(Nc3ncc4c(n3)N3C(CC4=O)C(=O)NCC3(C)C)nc2)CC1 (stereo not drawn) [Compound 1, 10,10-dimethyl-2-((5-(4-methylpiperazin-1-yl)pyridin-2-yl)amino)-6,6a,9,10-tetrahydro-5H-pyrazino[1′,2′:1,6]pyrido[2,3-d]pyrimidine-5,7(8H)-dione]",> 100 µM,30.6 µM,> 100 µM,> 100 µM,> 100 µM,8.06 µM,> 100 µM,> 100 µM,,,,,
"CN1CCN(c2ccc(Nc3ncc4c(n3)N3C(CC4)C(=O)NCC3(C)C)nc2)CC1 (stereo not drawn) [Compound 2, 10,10-dimethyl-2-((5-(4-methylpiperazin-1-yl)pyridin-2-yl)amino)-6,6a,9,10-tetrahydro-5H-pyrazino[1′,2′:1,6]pyrido[2,3-d]pyrimidin-7(8H)-one]",> 100 µM,> 100 µM,,> 100 µM,> 100 µM,> 100 µM,> 100 µM,> 100 µM,,,,,
CN1CCN(c2ccc(Nc3ncc4c(n3)N3C(CC4=O)C(=O)NCC34CCCCC4)nc2)CC1 (stereo not drawn) [Compound 3],> 100 µM,> 100 µM,> 100 µM,> 100 µM,> 100 µM,> 100 µM,> 100 µM,> 100 µM,,,,,
"CN1CCN(c2ccc(Nc3ncc4c(n3)N3C(CC4)C(=O)NCC34CCCCC4)nc2)CC1 (stereo not drawn) [Compound 4, 2′-((5-(4-methylpiperazin-1-yl)pyridin-2-yl)amino)-6′,6a′,8′,9′-tetrahydrospiro[cyclohexane-1,10′-pyrazino[1′,2′:1,6]pyrido[2,3-d]pyrimidin]-7′(5′H)-one]",> 100 µM,75.9 µM,> 100 µM,> 100 µM,> 100 µM,47.7 µM,> 100 µM,86.4 µM,,,,,
"CN1CCN(c2ccc(Nc3ncc4c(n3)N3C(CC4=O)C(=O)NCC34CCCC4)nc2)CC1 (stereo not drawn) [Compound 5, 2′-((5-(4-methylpiperazin-1-yl)pyridin-2-yl)amino)-6′,6a′,8′,9′-tetrahydrospiro[cyclopentane-1,10′-pyrazino[1′,2′:1,6]pyrido[2,3-d]pyrimidine]-5′,7′-dione]",> 100 µM,> 100 µM,> 100 µM,> 100 µM,> 100 µM,> 100 µM,> 100 µM,> 100 µM,,,,,
"CN1CCN(c2ccc(Nc3ncc4c(n3)N3CCNC(=O)C3CC4=O)nc2)CC1 (stereo not drawn) [Compound 6, 2-((5-(4-methylpiperazin-1-yl)pyridin-2-yl)amino)-6,6a,9,10-tetrahydro-5H-pyrazino[1′,2′:1,6]pyrido[2,3-d]pyrimidine-5,7(8H)-dione]",> 100 µM,50.4 µM,> 100 µM,> 100 µM,> 100 µM,14.4 µM,> 100 µM,> 100 µM,,,,,
"CN1CCN(c2ccc(Nc3ncc4cc5n(c4n3)C3(CCCCC3)Cn3ccnc3-5)nc2)CC1 [Compound 25, N-(5-(4-Methylpiperazin-1-yl)pyridin-2-yl)-5′H -spiro[cyclohexane-1,6′-imidazo[2″,1″:3′,4′]pyrazino[1′,2′:1,5]pyrrolo[2,3-d]pyrimidin]-9′-amine]",,,,,,,,,0.1 µM,99 µM,59 µM,0.03 µM,6.3 µM
"CN1CCN(c2ccc(Nc3ncc4c(n3)N3C(=NCC35CCCCC5)C(=O)N4)nc2)CC1 [Compound 27, 2′-((5-(4-Methylpiperazin-1-yl)pyridin-2-yl)amino)-5′H-spiro[cyclohexane-1,9′-imidazo[2,1-h]pteridin]-6′(8′H)-one]",,,,,,,,,21 µM,> 100 µM,> 100 µM,9.4 µM,> 100 µM
"CN1CCN(c2ccc(Nc3ncc4cc5n(c4n3)C3(C=NC5)CCCCC3)nc2)CC1 [Compound 31, N-(5-(4-Methylpiperazin-1-yl)pyridin-2-yl)-6′H-spiro[cyclohexane-1,9′-pyrazino[1′,2′:1,5]pyrrolo[2,3-d]pyrimidin]-2′-amine]",,,,,,,,,0.001 µM,0.04 µM,0.1 µM,0.0006 µM,0.04 µM
"CN1CCN(c2ccc(Nc3ncc4cc5n(c4n3)C3(CCCCC3)C(=O)NC5)nc2)CC1 [Compound 33, 2′-((5-(4-Methylpiperazin-1-yl)pyridin-2-yl)amino)-6′,7′-dihydro-8′H-spiro[cyclohexane-1,9′-pyrazino [1′,2′:1,5]pyrrolo[2,3-d]pyrimidin]-8′-one]",,,,,,,,,0.02 µM,4 µM,2 µM,0.006 µM,3 µM
"CN1CCN(c2ccc(Nc3ncc4cc5n(c4n3)C3(CCOCC3)CNC5=O)nc2)CC1 [Compound 34, 2′-((5-(4-Methylpiperazin-1-yl)pyridin-2-yl)amino)-2,3,5,6,7′,8′-hexahydro-6′H-spiro [pyran-4,9′-pyrazino [1′,2′:1,5]pyrrolo [2,3-d]pyrimidin]-6′-one]",,,,,,,,,0.02 µM,23 µM,14 µM,0.02 µM,0.4 µM
"O=C1NCC2(CCCCC2)n2c1cc1cnc(N[C@H]3CC[C@H](N4CCN(CC5CC5)CC4)CC3)nc12 [Compound 36, 2′-(((1R,4R)-4-(4-(Cyclopropylmethyl)piperazin-1-yl)cyclohexyl)amino)-7′,8′-dihydro-6′H-spiro [cyclohexane-1,9′-pyrazino[1′,2′:1,5]pyrrolo[2,3-d]pyrimidin]-6′-one]",,,,,,,,,0.03 µM,0.3 µM,0.1 µM,0.004 µM,0.002 µM
"CN1CCN([C@H]2CC[C@H](Nc3ncc4cc5n(c4n3)C3(CCCCC3)CNC5=O)CC2)CC1 [Compound 37, 2′-(((1R,4R)-4-(4-Methylpiperazin-1-yl)cyclohexyl)amino)-7′,8′-dihydro-6′H-spiro[cyclohexane-1,9′-pyrazino[1′,2′:1,5]pyrrolo[2,3-d]pyrimidin]-6′-one]",,,,,,,,,0.04 µM,0.4 µM,0.02 µM,0.006 µM,0.003 µM
"CO[C@H]1CC[C@@]2(CC1)CNC(=O)c1cc3cnc(Nc4ccc(N5CCN(C)CC5)cn4)nc3n12 [Compound 38, (1S,4S)-4-Methoxy-2′-((5-(4-methylpiperazin-1-yl)pyridin-2-yl)amino)-7′,8′-dihydro-6′H-spiro[cyclohexane-1,9′-pyrazino[1′,2′:1,5]pyrrolo [2,3-d]pyrimidin]-6′-one]",,,,,,,,,0.01 µM,14 µM,5 µM,0.007 µM,0.2 µM
"CO[C@H]1CC[C@]2(CC1)CNC(=O)c1cc3cnc(Nc4ccc(N5CCN(C)CC5)cn4)nc3n12 [Compound 39, (1R,4R)-4-Methoxy-2′-((5-(4-methylpiperazin-1-yl)pyridin-2-yl)amino)-7′,8′-dihydro-6′H-spiro [cyclohexane-1,9′-pyrazino[1′,2′:1,5]pyrrolo [2,3-d]pyrimidin]-6′-one]",,,,,,,,,0.09 µM,33 µM,19 µM,0.06 µM,0.2 µM
"O=C1NCC2(CCCCC2)n2c1cc1cnc(N[C@H]3CC[C@@H](N4CCN(CC5CC5)CC4)CC3)nc12 [Compound 40, 2′-(((1S,4S)-4-(4-(Cyclopropylmethyl)piperazin-1-yl)cyclohexyl)amino)-7′,8′-dihydro-6′H-spiro [cyclohexane-1,9′-pyrazino[1′,2′:1,5]pyrrolo[2,3-d]pyrimidin]-6′-one]",,,,,,,,,0.5 µM,5 µM,2 µM,0.09 µM,0.05 µM
"CN1CCN([C@H]2CC[C@@H](Nc3ncc4cc5n(c4n3)C3(CCCCC3)CNC5=O)CC2)CC1 [Compound 41, 2′-(((1S,4S)-4-(4-Methylpiperazin-1-yl)cyclohexyl)amino)-7′,8′-dihydro-6′H-spiro[cyclohexane-1,9′-pyrazino[1′,2′:1,5]pyrrolo[2,3-d]pyrimidin]-6′-one]",,,,,,,,,0.8 µM,6 µM,2 µM,0.14 µM,0.07 µM
